{
  "source": "patent US20250230193A1",
  "about": "“CYCLIC COMPOUND HAVING SELECTIVE KRAS INHIBITORY EFFECT ON HRAS AND NRAS” (CHUGAI SEIYAKU KABUSHIKI KAISHA, priority 2022, published 2025)",
  "key": {"[1]": {"biological_target": "GDP-bound HRAS wild-type protein (Homo sapiens, UniProt P01112)", "sequence (P01112 whole entry)": "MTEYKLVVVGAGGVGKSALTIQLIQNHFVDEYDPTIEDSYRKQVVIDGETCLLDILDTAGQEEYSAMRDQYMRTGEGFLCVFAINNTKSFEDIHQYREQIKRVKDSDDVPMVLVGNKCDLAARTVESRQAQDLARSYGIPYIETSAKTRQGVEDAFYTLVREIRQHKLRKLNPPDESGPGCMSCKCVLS", "test": "Binding to HRAS by surface plasmon resonance (SPR), Single Cycle Kinetics"}, "[2]": {"biological_target": "GDP-bound NRAS wild-type protein (Homo sapiens, UniProt P01111)", "sequence (P01111 whole entry)": "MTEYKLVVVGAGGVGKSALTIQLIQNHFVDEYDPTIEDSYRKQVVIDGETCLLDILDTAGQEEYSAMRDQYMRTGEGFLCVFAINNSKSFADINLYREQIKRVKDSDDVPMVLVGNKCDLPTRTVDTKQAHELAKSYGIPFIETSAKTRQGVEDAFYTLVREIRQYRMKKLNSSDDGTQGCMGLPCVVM", "test": "Binding to NRAS by surface plasmon resonance (SPR), Single Cycle Kinetics"}, "[3]": {"conditions": "SPR, GDP-bound wild-type proteins"}, "[4]": {"conditions": "SPR, GDP-bound HRAS wild-type vs GDP-bound KRAS wild-type"}, "[5]": {"conditions": "SPR, GDP-bound NRAS wild-type vs GDP-bound KRAS wild-type"}},
  "data": [
    {"smiles": "CCC[C@H]1C(=O)N[C@@H]([C@@H](C)CC)C(=O)N(C)CC(=O)N(C)[C@H]2C/C=C\\CCN(C2=O)[C@@H](Cc2ccc(C)cc2)C(=O)N(C)CC(=O)N[C@@H](CCc2ccc3sc(F)c(C)c3c2)C(=O)N2C[C@H](OCC)C[C@H]2C(=O)NC2(CC(C)(C)C2)C(=O)N(C)[C@@H](C(CC)CC)C(=O)N(C)[C@H](C(=O)N(C)C)CC(=O)N1C", "note": "[PP2894]", "values": [
      {"measurement": "HRAS/KRAS (ratio of KD value with respect to GDP-bound HRAS wild-type protein to KD value with respect to KRAS)", "setting": "[1]; class symbols", "value": "A (a compound having 10 or more and less than 20 is denoted as A)"},
      {"measurement": "NRAS/KRAS (ratio of KD value with respect to GDP-bound NRAS wild-type protein to KD value with respect to KRAS)", "setting": "[2]; class symbols", "value": "AA (a compound having 20 or more is denoted as AA)"}
    ]},
    {"smiles": "CC[C@H](C)[C@@H]1NC(=O)[C@H](CC2CC2)N(C)C(=O)C[C@@H](C(=O)N(C)C)N(C)C(=O)[C@H](C2CCCC2)N(C)C(=O)C2(CCC2)NC(=O)[C@@H]2C[C@H](C)CN2C(=O)[C@H](CCc2ccc(C(F)(F)F)c(OC)c2)NC(=O)CN(C)C(=O)[C@H](Cc2ccc(C)cc2)N2CC/C=C\\C[C@@H](C2=O)N(C)C(=O)CN(C)C1=O", "note": "[PP1861]", "values": [
      {"measurement": "HRAS/KRAS (ratio of KD value for HRAS to KD value for KRAS)", "setting": "[1]; KD ratio, GDP-bound HRAS wild-type vs GDP-bound KRAS wild-type, SPR", "value": "B (a compound having 3 or more and less than 10 is denoted as B)"},
      {"measurement": "NRAS/KRAS (ratio of KD value for NRAS to KD value for KRAS)", "setting": "[2]; KD ratio, GDP-bound NRAS wild-type vs GDP-bound KRAS wild-type, SPR", "value": "A (a compound having 10 or more and less than 20 is denoted as A)"}
    ]},
    {"smiles": "CCC[C@H]1C(=O)N[C@@H](C2CCCC2)C(=O)N(C)CC(=O)N(C)[C@H]2C/C=C\\CCN(C2=O)[C@@H](Cc2ccc(C(F)(F)F)cc2)C(=O)N(C)CC(=O)N[C@@H](CCc2ccc(C(F)(F)F)c(Cl)c2)C(=O)N2C[C@H](OCC)C[C@H]2C(=O)NC2(CC(C)(C)C2)C(=O)N(C)[C@@H](C2CCCC2)C(=O)N(C)[C@H](C(=O)N(C)C)CC(=O)N1C", "note": "[PP2984]", "values": [
      {"measurement": "HRAS/KRAS (ratio of KD value with respect to GDP-bound HRAS wild-type protein to KD value with respect to KRAS)", "setting": "[1]; [3]", "value": "B (a compound having 3 or more and less than 10 is denoted as B)"},
      {"measurement": "NRAS/KRAS (ratio of KD value with respect to GDP-bound NRAS wild-type protein to KD value with respect to KRAS)", "setting": "[2]; [3]", "value": "A (a compound having 10 or more and less than 20 is denoted as A)"}
    ]},
    {"smiles": "CCO[C@@H]1C[C@H]2C(=O)NC3(CC=CC3)C(=O)N(C)[C@@H](C3CCCC3)C(=O)N(C)[C@H](C(=O)N(C)C)CC(=O)N(C)[C@@H](C)C(=O)N[C@@H]([C@@H](C)CC)C(=O)N(C)CC(=O)N(C)[C@H]3CCCCCN(C3=O)[C@@H](Cc3ccc(C(F)(F)F)cc3)C(=O)N(C)CC(=O)N[C@@H](CCc3cc(F)c(C(F)(F)F)c(F)c3)C(=O)N2C1", "note": "[PP0724]", "values": [
      {"measurement": "HRAS/KRAS (ratio of KD value with respect to GDP-bound HRAS wild-type protein to KD value with respect to KRAS)", "setting": "[1]; SPR", "value": "B (a compound having 3 or more and less than 10 is denoted as B)"},
      {"measurement": "NRAS/KRAS (ratio of KD value with respect to GDP-bound NRAS wild-type protein to KD value with respect to KRAS)", "setting": "[2]; SPR", "value": "B (a compound having 3 or more and less than 10 is denoted as B)"}
    ]},
    {"smiles": "CCC[C@@H]1C[C@H]2C(=O)NC3(CCCC3)C(=O)N(C)[C@@H](C3CCCC3)C(=O)N(C)[C@H](C(=O)N(C)CC)CC(=O)N(C)[C@@H](C)C(=O)N[C@@H]([C@@H](C)CC)C(=O)N(C)CC(=O)N(C)[C@H]3C/C=C\\CCN(C3=O)[C@@H](Cc3ccc(C(F)(F)F)cc3)C(=O)N(C)CC(=O)N[C@@H](CCc3cc(F)c(C(F)(F)F)c(F)c3)C(=O)N2C1", "note": "[PP2272]", "values": [
      {"measurement": "HRAS/KRAS (ratio of KD value with respect to HRAS to KD value with respect to KRAS)", "setting": "[1]; [4]", "value": "A (a compound having 10 or more and less than 20 is denoted as A)"},
      {"measurement": "NRAS/KRAS (ratio of KD value with respect to NRAS to KD value with respect to KRAS)", "setting": "[2]; [5]", "value": "AA (a compound having 20 or more is denoted as AA)"}
    ]},
    {"smiles": "CCCOC[C@H]1C(=O)N[C@@H]([C@@H](C)CC)C(=O)N(C)CC(=O)N(C)[C@H]2C/C=C\\CCN(C2=O)[C@@H](Cc2ccc(C)cc2)C(=O)N(C)CC(=O)N[C@@H](CCc2ccc(C(F)(F)F)c(OC)c2)C(=O)N2C[C@H](OCC)C[C@H]2C(=O)NC2(CC(C)(C)C2)C(=O)N(C)[C@@H](C2CCCC2)C(=O)N(C)[C@H](C(=O)N(C)CC)CC(=O)N1C", "note": "[PP2463]", "values": [
      {"measurement": "HRAS/KRAS (ratio of KD value with respect to HRAS to KD value with respect to KRAS)", "setting": "[1]; [4]", "value": "A (a compound having 10 or more and less than 20 is denoted as A)"},
      {"measurement": "NRAS/KRAS (ratio of KD value with respect to NRAS to KD value with respect to KRAS)", "setting": "[2]; [5]", "value": "A (a compound having 10 or more and less than 20 is denoted as A)"}
    ]},
    {"smiles": "CCC[C@H]1C(=O)N[C@@H]([C@@H](C)CC)C(=O)N(C2CC2)CC(=O)N(C)[C@H]2C/C=C\\CCN(C2=O)[C@@H](Cc2ccc(C)cc2)C(=O)N(C)CC(=O)N[C@@H](CCc2ccc(Cl)c(Cl)c2)C(=O)N2C[C@H](OCC)C[C@H]2C(=O)NC2(CC(C)(C)C2)C(=O)N(C)[C@@H](C(CC)CC)C(=O)N(C)[C@H](C(=O)N(C)C)CC(=O)N1C", "note": "[PP2561]", "values": [
      {"measurement": "HRAS/KRAS (ratio of KD value with respect to GDP-bound HRAS wild-type protein to KD value with respect to KRAS)", "setting": "[1]; class symbols", "value": "A (a compound having 10 or more and less than 20 is denoted as A)"},
      {"measurement": "NRAS/KRAS (ratio of KD value with respect to GDP-bound NRAS wild-type protein to KD value with respect to KRAS)", "setting": "[2]; class symbols", "value": "AA (a compound having 20 or more is denoted as AA)"}
    ]}
  ]
}
